Structures are written as SMILES. Values joined by “and” are separate entries in the source; they are usually repeats but may differ in a detail not shown here. Identical values can stand only once. Where only a bound is given, the exact number is not on record here.

For data set [1], the system named is L. amazonensis promastigotes. The data set can be described thus: Resazurin reduction assay, L. amazonensis promastigotes. The class given is cell-based. Particulars: Leishmania amazonensis, read-out: percentage of inhibition, L. amazonensis promastigotes. For orientation: Alamar Blue is a resazurin reagent that responds to reducing activity.
Data set [2] has as its system L. amazonensis amastigotes in primary mouse macrophages. The following applies: 10 μM, 3 days, toxic = toxic for macrophages.
The next data set in a line: in vitro. Particulars: mouse, noninfected L929 fibroblast cells.
Data set [3] concerns L. donovani axenic amastigotes. The data set is described as follows: Resazurin reduction assay, L. donovani axenic amastigotes. The following applies: Leishmania donovani, read-out: percentage of inhibition, L. donovani axenic amastigotes. Type of data set: cell-based.
Data set [4] deals with newly transformed schistosomula (NTS). The data set is described as follows: Phenotypic screening on newly transformed schistosomula (NTS). The class given is cell-based, Schistosoma mansoni. Particulars: for IC50: Schistosoma mansoni, 72 h, read-out: IC50, viability of NTS.
Data set [5] has as its system T. cruzi amastigotes and trypomastigotes. The data set can be described thus: T. cruzi infection assay in L929 cells (beta-galactosidase Tulahuen strain). Type of data set: cell-based, Trypanosoma cruzi.
The subject of data set [6] is human retinal pigment epithelial (RPE) cells. The data set can be described thus: MTT viability assay in RPE cells. The class given is cell-based. The following applies: Homo sapiens, RPE, 48 h, read-out: IC50 in RPE cells (cell viability). (In general: Tetrazolium dyes change colour on reduction, which living cells bring about.)
A short description of data set [7]: MTT viability assay in RPE cells. Type of data set: cell-based, human. Particulars: human, retinal pigment epithelial (RPE) cells, read-out: percentage of RPE cell viability, 48 h.
In a further data set the test system is S. mansoni adult worms. The data set is described as follows: Phenotypic screening on S. mansoni adult worms. The class given is cell-based, Schistosoma mansoni. The following applies: 72 h.
The subject of data set [8] is L. donovani promastigotes. The data set is described as follows: Resazurin reduction assay, L. donovani promastigotes. The class given is cell-based. The following applies: Leishmania donovani; 20 μM; read-out: percentage of inhibition, L. donovani promastigotes.
Data set [9] has as its system S. mansoni schistosomula, adult worm pairs, and egg production. Details: method as in PMID 28107750. Particulars: 10 μM; cited from earlier work.
Another data set has as its system Leishmania. Details: method as in PMID 28107750. Particulars: 10 and 20 μM; cited from earlier work.
Setting [10] is: 40 μM, infected L929 cells, 96 h, toxic = L929 death.
Where [11] appears, read: 80 μM, infected L929 cells, 96 h, toxic = L929 death.
Where [12] appears, read: 160 μM, infected L929 cells, 96 h, toxic = L929 death.
The mark [13] stands for this setting: Trypanosoma cruzi, infected L929 cells, 96 h, read-out: percentage of T. cruzi growth inhibition.
Where [14] appears, read: Trypanosoma cruzi, infected L929 cells, 96 h, toxic = L929 death, read-out: percentage of T. cruzi growth inhibition.

Usually inhibition stands for how much of the control response was suppressed. Usually CC50 stands for the concentration giving 50% cytotoxicity. What is called IC50 is the concentration at which inhibition is half-maximal. For `O=C(CCCCSc1nc(-c2ccc(-c3ccccc3)cc2)cc(=O)[nH]1)NO` [Compound 1], the inhibition at 20 µM was 2.1 ± 3.2% in [1]; 29 ± 14% in [3]; 0% in data set [5] (Trypanosoma cruzi, 20 μM, infected L929 cells, 96 h, toxic = L929 death, read-out: percentage of T. cruzi growth inhibition). The “HCA outcome against intramacrophagic L. amazonensis amastigotes” value in data set [2] is recorded as “toxic”. This compound registered a CC50 at 96 h in “in vitro” of 20 µM. Also, the “percentage of NTS activity, 72 h” value was 29.3 ± 0.9% in [4] (10 μM) and 43.3 ± 1.9% in data set [4] (20 μM). Besides, the IC50 in data set [4] is greater than 20 µM. Also, the “percentage of T. cruzi growth inhibition” value in data set [5] (setting [10]) was “toxic”; in data set [5] (setting [11]) it was “toxic”; in data set [5] (setting [12]) it was “toxic ^e”. Moreover, the inhibition at 1.25 µM in data set [5] (setting [13]) was determined as 0%. The inhibition at 2.5 µM in data set [5] (setting [14]) amounted to 0%. The inhibition at 5 µM in data set [5] (setting [14]) was 0%. Further, the inhibition at 10 µM in data set [5] (Trypanosoma cruzi, 10 μM, infected L929 cells, 96 h, toxic = L929 death, read-out: percentage of T. cruzi growth inhibition) was 0%. For the same compound, the “EC50, growth of T. cruzi amastigotes and trypomastigotes” value in data set [5] (infected L929 cells, 96 h, mean ± SD) was “inactive”.
One may read the viability as the share of living cells, or the viability signal relative to a control. In general, EC50 refers to the concentration giving half of the maximal effect. As to `CC(C)(C)OC(=O)Nc1cccc(C(=O)/C=C/c2ccc(/C=C/C(=O)NO)cc2)c1` [Compound 4], the inhibition at 0.8 µM in [1] (0.8 μM) was determined as 10.5 ± 2.9%; in [3] (0.8 μM), 39.5 ± 2%. In addition, the inhibition at 4 µM in data set [1] (4 μM) was determined as 95.7 ± 0.3%; in [3] (4 μM), 61.4 ± 4.3%. The results for the inhibition at 20 µM in data set [1], in [3] and in data set [8] were 97.9 ± 0.4%, 93.6 ± 0.4% and 95.9 ± 0.3%, respectively. The IC50 was found to be 15.6 µM in [6] and 1.29 µM in data set [4]. In [7] (1 μM), the viability at 48 h, 1 µM was found to be 75.7 ± 11.4%. Moreover, the viability at 48 h, 5 µM in data set [7] (5 μM) is 71.5 ± 12.8%. Further, the viability at 48 h, 10 µM in data set [7] (10 μM) was 50.2 ± 8.4%. Further, the viability at 48 h, 25 µM in data set [7] (25 μM) is 40.4 ± 9.8%. The viability at 48 h, 50 µM in data set [7] (50 μM) was 45.2 ± 6.6%. In addition, in data set [2], the “HCA outcome against intramacrophagic L. amazonensis amastigotes” value is “toxic”. Moreover, the CC50 at 96 h in the data set “in vitro” was 5 µM. Moreover, the “percentage of activity (death induction), S. mansoni adult worms” value in the data set with S. mansoni adult worms (10 μM) worked out at 45.1 ± 3.9%; in the data set on S. mansoni adult worms (20 μM), 63.8 ± 0%. The “percentage of NTS activity, 72 h” value in data set [4] (1 μM) is 24% and 24.0 ± 0.0%; in [4] (10 μM) it was 100% and 100.0 ± 0.0%; in [4] (20 μM), 100% and 100.0 ± 0.0%. The “percentage of T. cruzi growth inhibition” value in data set [5] (10 μM, infected L929 cells, 96 h, toxic = L929 death) is recorded as “toxic”; in [5] (20 μM, infected L929 cells, 96 h, toxic = L929 death), “toxic”; in data set [5] (setting [10]), “toxic”; in data set [5] (setting [11]), “toxic”; in data set [5] (setting [12]), “toxic”. In addition, the “selectivity index (SI), CC50/EC50” value in data set [5] (L929 CC50 / T. cruzi EC50) turned out to be 1.25. In addition, the EC50 in data set [5] (Trypanosoma cruzi, L929, 96 h, infected L929 cells, 96 h, mean ± SD, read-out: EC50, growth of T. cruzi amastigotes and trypomastigotes) worked out at 4 ± 0.07 µM. For the same compound, the inhibition at 1.25 µM in [5] (setting [13]) came to 0%. The inhibition at 2.5 µM in [5] (setting [14]) turned out to be 0%. Besides, the inhibition at 5 µM in data set [5] (setting [14]) turned out to be 85%.
On to `O=C(CCCCCCC(=O)Nc1ccccc1)NO` [SAHA], for which the “effects in schistosomula, adult worm pairs, and egg production” value (shortened to “effects in schistosomula”) in [9] is reported as “only moderate effects”. In addition, the “effect in Leishmania” value with Leishmania is “ineffective and/or exhibited too high toxicity for macrophages”.
As to `O=C(/C=C/c1cccc(S(=O)(=O)Nc2ccccc2)c1)NO` [belinostat], the “effects in schistosomula” value in [9] was “only moderate effects”. For the same compound, in the data set with Leishmania, the “effect in Leishmania” value was “ineffective and/or exhibited too high toxicity for macrophages”.
In the case of `Cc1[nH]c2ccccc2c1CCNCc1ccc(/C=C/C(=O)NO)cc1` [panobinostat], the “effects in schistosomula” value in data set [9] was “only moderate effects”. The “effect in Leishmania” value with Leishmania is given as “ineffective and/or exhibited too high toxicity for macrophages”.
As for `C/C=C1\NC(=O)[C@H]2CSSCC/C=C/[C@H](CC(=O)N[C@H](C(C)C)C(=O)N2)OC(=O)[C@H](C(C)C)NC1=O` [romidepsin], the “effects in schistosomula” value in data set [9] is given as “only moderate effects”. For the same compound, the “effect in Leishmania” value in the data set on Leishmania is reported as “ineffective and/or exhibited too high toxicity for macrophages”.
